Laboratory results from patent US12083100B1, “Antiparasitic isoxazoline compounds, long-acting injectable formulations comprising them, methods and uses thereof” (BOEHRINGER INGELHEIM ANIMAL HEALTH USA INC., priority 2016, dated 2024).

Test system: Rhipicephalus microplus ticks
Experiment: Efficacy of injectable formulation against Rhipicephalus (Boophilus) microplus ticks on cattle
Format: in vivo
Conditions: for Average % Efficacy (Tick Count): vs untreated control; for efficacy and duration of activity against Rhipicephalus microplus compared with other isoxazoline compounds / speed of onset of efficacy against Rhipicephalus microplus compared with other isoxazoline compounds: injectable composition, compared with afoxolaner, (If) or (S)-If
Procedure: The efficacy of long-acting injectable compositions of the invention comprising the compounds of formula (Ie) and (S)-Ie, against Rhipicephalus microplus ticks on cattle was determined against an untreated control group. The efficacy of compositions comprising the compounds (Ie) and (S)-e were also compared with injectable compositions comprising afoxolaner (formula Ia, 4-[5-[3-chloro-5-(trifluoromethyl)phenyl]-4,5-dihydro-5-(trifluoromethyl)-3-isoxazolyl]-N-[2-oxo-2-[(2,2,2-trifluoroethyl)amino]ethyl]-1-naphthalanecarboxamide), and comparative compounds of formulae (If) and (S)-If shown below.
Each compound was formulated in an injectable composition at a concentration of 10% (w/v) in a carrier comprising 8% (w/v) ethanol and Q.S. with polyethylene glycol 400. The racemic compounds afoxolaner and (If) were dosed at 1.0 mg/kg body weight and the (S)-enantiomers ((S)-Ie and (S)-If) were dosed at 0.5 mg/kg body weight. Six healthy head of cattle were used in each study group. Cattle in Group 1 were untreated (control). Cattle in Groups 2, 3, 4, 5 and 6 were treated on Day 0 subcutaneously with injectable compositions comprising the compounds of formula Ie, (S)-If, (S)-Ie, afoxolaner (Ia) and (If), respectively. Several weeks before treatment, cattle were infested three times a week with approximately 2500 Rhipicephalus microplus larvae to establish ongoing infestations. Each animal was challenged by infestation with approximately 5000 R. microplus larvae on Days 7 and 21 and every 14 days thereafter. Ticks dropping from each animal in the previous 24 hours were collected daily and counted from Day 1 until the end of the study.

[1] = Day 5, 1.0 mg/kg subcutaneous on Day 0 (racemic compounds)
[2] = Day 10, 1.0 mg/kg subcutaneous on Day 0 (racemic compounds)
[3] = Day 20, 1.0 mg/kg subcutaneous on Day 0 (racemic compounds)
[4] = Day 30, 1.0 mg/kg subcutaneous on Day 0 (racemic compounds)
[5] = Day 40, 1.0 mg/kg subcutaneous on Day 0 (racemic compounds)
[6] = Day 49, 1.0 mg/kg subcutaneous on Day 0 (racemic compounds)
[7] = Day 55, 1.0 mg/kg subcutaneous on Day 0 (racemic compounds)
[8] = Day 60, 1.0 mg/kg subcutaneous on Day 0 (racemic compounds)
[9] = Day 65, 1.0 mg/kg subcutaneous on Day 0 (racemic compounds)
[10] = Day 70, 1.0 mg/kg subcutaneous on Day 0 (racemic compounds)
[11] = Day 75, 1.0 mg/kg subcutaneous on Day 0 (racemic compounds)
[12] = listed as formula (Ic) wherein X^1 is chloro, X^2 is fluoro and X^3 is CF3
[13] = listed as formula (Id) in which Y is Y-2, Q is —C(O)NHCH2C(O)NHCH2CF3, X^1 is fluoro and X

Row | SMILES | Average % Efficacy (Tick Count) [1] | Average % Efficacy (Tick Count) [2] | Average % Efficacy (Tick Count) [3] | Average % Efficacy (Tick Count) [4] | Average % Efficacy (Tick Count) [5] | Average % Efficacy (Tick Count) [6] | Average % Efficacy (Tick Count) [7] | Average % Efficacy (Tick Count) [8] | Average % Efficacy (Tick Count) [9] | Average % Efficacy (Tick Count) [10] | Average % Efficacy (Tick Count) [11] | other results
1 | O=C(CNC(=O)c1ccc(C2=NO[C@@](c3cc(Cl)cc(Cl)c3)(C(F)(F)F)C2)c2ccccc12)NCC(F)(F)F [(S)-If, reference compound] | – | – | – | – | – | – | – | – | – | – | – | Average % Efficacy (Tick Count) (Day 5, 0.5 mg/kg subcutaneous on Day 0 ((S)-enantiomers)): 39%; Average % Efficacy (Tick Count) (Day 10, 0.5 mg/kg subcutaneous on Day 0 ((S)-enantiomers)): 27%; Average % Efficacy (Tick Count) (Day 20, 0.5 mg/kg subcutaneous on Day 0 ((S)-enantiomers)): 33%; Average % Efficacy (Tick Count) (Day 30, 0.5 mg/kg subcutaneous on Day 0 ((S)-enantiomers)): 86%; Average % Efficacy (Tick Count) (Day 40, 0.5 mg/kg subcutaneous on Day 0 ((S)-enantiomers)): 100%; Average % Efficacy (Tick Count) (Day 49, 0.5 mg/kg subcutaneous on Day 0 ((S)-enantiomers)): 36%; Average % Efficacy (Tick Count) (Day 55, 0.5 mg/kg subcutaneous on Day 0 ((S)-enantiomers)): 0%
2 | O=C(CNC(=O)c1ccc(C2=NOC(c3cc(Cl)cc(Cl)c3)(C(F)(F)F)C2)c2ccccc12)NCC(F)(F)F (stereo not shown) [If, reference compound] | 70% | 62% | 57% | 84% | 100% | 70% | 14% | – | – | – | – | –
3 | O=C(CNC(=O)c1ccc(C2=NOC(c3cc(Cl)cc(C(F)(F)F)c3)(C(F)(F)F)C2)c2ccccc12)NCC(F)(F)F (racemic) [afoxolaner, 4-[5-[3-chloro-5-(trifluoromethyl)phenyl]-4,5-dihydro-5-(trifluoromethyl)-3-isoxazolyl]-N-[2-oxo-2-[(2,2,2-trifluoroethyl)amino]ethyl]-1-naphthalanecarboxamide, reference compound] | 38% | 48% | 77% | 99% | 100% | 94% | 73% | 71% | 48% | 3% | 0% | –
4 | O=C(CNC(=O)c1ccc(C2=NOC(c3cc(Cl)c(F)c(C(F)(F)F)c3)(C(F)(F)F)C2)c2ccccc12)NCC(F)(F)F (racemic) [Ie] | 69% | 100% | 100% | 100% | 100% | 100% | 100% | 100% | 100% | 100% | 100% | Average % Efficacy (Tick Count) (Day 80, 1.0 mg/kg subcutaneous on Day 0 (racemic compounds)): 100%; Average % Efficacy (Tick Count) (Day 85, 1.0 mg/kg subcutaneous on Day 0 (racemic compounds)): 100%; Average % Efficacy (Tick Count) (Day 88, 1.0 mg/kg subcutaneous on Day 0 (racemic compounds)): 100%; Average % Efficacy (Tick Count) (Day 95, 1.0 mg/kg subcutaneous on Day 0 (racemic compounds)): 100%; Average % Efficacy (Tick Count) (Day 100, 1.0 mg/kg subcutaneous on Day 0 (racemic compounds)): 100%; Average % Efficacy (Tick Count) (Day 105, 1.0 mg/kg subcutaneous on Day 0 (racemic compounds)): 93%; Average % Efficacy (Tick Count) (Day 110, 1.0 mg/kg subcutaneous on Day 0 (racemic compounds)): 82%; efficacy and duration of activity against Rhipicephalus microplus compared with other isoxazoline compounds: surprising and unexpected efficacy; speed of onset of efficacy against Rhipicephalus microplus compared with other isoxazoline compounds (listed as Je): faster-acting; efficacy and duration of activity against Rhipicephalus microplus compared with other isoxazoline compounds [12]: surprisingly long-lasting and excellent efficacy; speed of onset of efficacy against Rhipicephalus microplus compared with other isoxazoline compounds [12]: quick onset; efficacy and duration of activity against Rhipicephalus microplus compared with other isoxazoline compounds [13]: surprisingly improved duration of activity; speed of onset of efficacy against Rhipicephalus microplus compared with other isoxazoline compounds [13]: surprisingly improved fast-acting efficacy
